The assay relates to proteoglycan induced arthritis. The assay is described as follows: Proteoglycan induced arthritis (PGIA), intranasal pre-treatment. It is filed as in vivo, Balb/c mice. Conditions: Example 8: 30 μg intranasally on day −7, −5 and −3 before disease induction. The source says: The proteoglycan induced arthritis model (PGIA) is a murine model of rheumatoid arthritis and is described to be a T-cell dependent and antibody mediated model. In the model arthritis is induced by two times injection of human proteoglycan (hPG) in a synthetic adjuvant dimethyldioctadecylammonium (DDA), see Hanyecz A. et al., Achievement of a synergistic adjuvant effect on arthritis induction by activation of innate immunity and forcing the immune response toward the Th1 phenotype. Arthritis Rheum. 2004 50(5):1665-76.
Because arthritis is induced by immunization with a synthetic adjuvant, instead of complete Freund's adjuvant (CFA), the role of interfering immune responses, induced by microbial Hsp's present in CFA, can be excluded. Due to cross reactive responses, between the human and the mouse (self) PG, a chronic and relapsing arthritis develops. After disease development, arthritis severity is scored by clinical assessment of thickness, redness and deformation of the joints on a scale of 1-4 per paw.
Ten female Balb/c mice, retired breeders obtained from Charles River, were randomly divided in two groups. To evaluate the effect of intra nasal treatment with Mycobacterial HSP70 (SEQ ID NO: 55) on PGIA 30 μg Hsp70 in 10 μl PBS was administered on day −7, −5 and −3 before disease induction. PGIA was induced by two times i.p. injection with 400 μg hPG and 2 mg DDA in 200 μl PBS. Subsequently developed arthritis scores were assessed by clinical evaluation as described in Example 7.
Fifteen female Balb/c mice, retired breeders obtained from Charles River, were randomly divided in three groups (five mice per group). To evaluate the effect of intranasal treatment with Hsp70-derived peptides “B1” (SEQ ID NO: 1) and a mixture of C1 (SEQ ID NO: 3) and mC1a (SEQ ID NO: 4) (designated herein as “C1mix”) on PGIA 100 μg peptide in 10 μl PBS was administered on day −7, −5 and −3 before disease induction. Ovalbumin peptide 323-339 (pOva) was used as a control peptide. PGIA was induced by two times i.p. injection with 400 μg hPG and 2 mg DDA in 200 μl PBS. Subsequently developed arthritis scores were assessed by clinical evaluation.
Twelve female Balb/c mice, retired breeders obtained from Charles River, were randomly divided in two groups (six mice per group). To evaluate the effect of intra nasal treatment with Hsp70 derived mC1 a on PGIA 100 μg peptide in 10 μl PBS was administered on day −14, −11, −7 and −4 before disease induction. Ovalbumin peptide (pOva) was used as a control peptide. PGIA was induced by two times i.p. injection with 400 μg hPG and 2 mg DDA in 200 μl PBS. Subsequently developed arthritis scores were assessed by clinical evaluation.
Eighteen female Balb/c mice, retired breeders obtained from Charles River, were randomly divided in three groups (six mice per group). To evaluate the effect of intranasal (i.n.) treatment with Hsp70 derived peptides C1 and its mouse homologue mC1a on PGIA 100 μg peptide in 10 μl PBS was administered on day −7, −5 and −3 before disease induction (see FIG. 28). Ovalbumin peptide (pOva) was used as a control peptide. PGIA was induced by two times i.p. injection with 300 μg hPG and 2 mg DDA in 200 μl PBS. Subsequently developed arthritis scores were assessed by clinical evaluation. • Group A: (pOva): Treated with 100 μg pOva in 10 μl PBS intranasally • Group B (C1): Treated with 100 μg C1 in 10 μl PBS intranasally • Group C (mC1a): Treated with 100 μg mC1a in 10 μl PBS intranasally

With “HSP70: full length Mycobacterial HSP70 protein (SEQ ID NO: 55)”, the “arthritis development (arthritis score)” value is on record as “can suppress arthritis development”.

For the origin of these results see patent US8742068B2, “Treatment and prevention of inflammatory diseases and autoimmune diseases” (Universiteit Utrecht Holding B.V., priority 2007, dated 2014).
